Experimental data from patent US10233201B2, “Class of HDAC inhibitors expands the renal progenitor cells population and improves the rate of recovery from acute kidney injury” (University of Pittsburgh—Of the Commonwealth System of …, priority 2012, dated 2019).

Experiments:
[1] = tested on: human HDACs (HeLa cell nuclear extract); experiment: Fluorescence histone deacetylation assay with HeLa cell nuclear extract; type: biochemical; conditions: 5 mM compound, 10 μg HeLa extract
Experimental: To evaluate this in vitro, the deacetylation of a fluorescent peptide substrate was measured in the presence of human HDACs.
In vitro HDAC activity assays were performed using a fluorescence HDAC assay kit (Active Motif) according to the manufacturer's instructions. For maintaining compound solubility at 5 mM, the final DMSO concentration in all assay wells was increased to 5%. Fluorescence was detected using an M5 Plate Reader ([…])

[2] = tested on: myod1 (somites), fli1a (vasculature), ntla (notochord); experiment: In situ hybridization for mesodermal markers myod1, fli1a, ntla in 10-somite embryos; type: in vivo, zebrafish; conditions: 25 μM PBA
Experimental: (§1) PTBA was synthesized as described below. Hydroxyurea and aphidicolin were obtained from Sigma-Aldrich.
(§2) In situ hybridization and immunocytochemistry: In situ hybridization was performed as previously described with some modifications. 142 Hybridization temperature was 65° C. Embryos were blocked in 2% blocking reagent (Roche) with 5% sheep serum in MAB (100 mM maleic acid and 150 mM NaCl [pH 7.5]). Whole-mount immunocytochemistry with 1:25 mouse anti-α6F antibody (Developmental Studies Hybridoma Bank) and 1:100 Cy3 secondary antibody (Jackson ImmunoResearch) was performed as described previously. 108 Embryos were embedded in JB-4 for sectioning per the manufacturer's instructions (Polysciences), sectioned at 5 μm, and mounted with Cytoseal 60 (Richard-Allan Scientific).

zebrafish larvae = experiment: Phenotypic scoring of edema and survival in zebrafish larvae at 72 hpf; type: in vivo; conditions: 25 μM PBA, 200 nM TSA
Description: as §1
Wild type: no visible edema or developmental delay.

[3] = tested on: HDAC activity in DSI9 mouse erythroleukemia cells; conditions: 5 mM; cited from earlier work
histone H4 acetylation = experiment: Histone H4 hyperacetylation Western blot in embryos; type: in vivo, zebrafish; conditions: 24 hpf embryos treated 6 hours; 3 μM PTBA, 25 μM PBA, 200 nM TSA
Experimental: It was next determined whether the HDACi function of PTBA was quantifiable in vivo. 24 hpf embryos were treated with 3 μM PTBA, 25 μM PBA, or 200 nM TSA for 6 hours. Protein extracts were prepared and immunoblotted with an anti-hyperacetylated histone H4 antibody. […] Furthermore, increasing the compound concentration caused a corresponding increase in hyperacetylation (FIG. 21).
SDS-PAGE and Western blotting were performed as described previously with some modifications (Noel, E. S. et al. Organ-specific requirements for Hdac1 in liver and pancreas formation. Dev Biol 322, 237-250, (2008)). Proteins were separated on 18% SDS-PAGE gels. Membranes were incubated at 4° C. overnight with 1:1000 anti-hyperacetylated histone H4 antibody (06-946, Millipore) or 1:1000 anti-α-tubulin antibody (Sigma-Aldrich) in PBT containing 5% nonfat milk.

[4] = tested on: renal progenitor cells (lhx1a expression); experiment: In situ hybridization for lhx1a expression in 10-somite embryos (renal progenitor cell expansion); type: in vivo; for lhx1a expansion class, 200 nM: key: effective (+); partially effective (+/−); ineffective (−); Analogs that killed all embryos at a given concentration before reaching 10 somites are listed as XX; for lhx1a expansion class, 400 nM: key: effective (+); partially effective (+/−); ineffective (−); Analogs that killed all embryos at a given concentration before reaching 10 somites are listed as XX; for lhx1a expansion class, 800 nM: key: effective (+); partially effective (+/−); ineffective (−); Analogs that killed all embryos at a given concentration before reaching 10 somites are listed as XX
Experimental: as §1, §2
The remaining PTBA analogs were synthesized.
In situ hybridization for lhx1a was performed as described above. […] Compounds were classified as effective, partially-effective or ineffective based on comparison to the effects of PTBA at a given concentration.
Testing of the compounds is on-going, but for those tested, Table 3 provides first pass EC50s based upon colormetric in situ hybridizations for the Lhx1a mRNA expression levels. After the procedure is run, in situ hybridization is done for the lhx1 mRNA expression and the number of embryos that show an expanded kidney field is manually counted to establish the percent of embryos showing expansion. Then the EC50 is determined by plotting the percent expansion in Excel, graphing the results and using the trendline function to determine the 50 percent point. […] For UPHD-00186, the 4 values for EC50 are shown in Table 3 for the corresponding expression in zebrafish embryos employed an artificial intelligence-based image analysis method termed cognition network technology (CNT) for n=4.

[5] = tested on: mouse models of unilateral ureteral obstruction (UUO); experiment: Unilateral ureteral obstruction (UUO); type: in vivo; conditions: IP days 0 to 6, kidneys harvested at day 7
Description: The model of unilateral ureteral obstruction generates progressive renal fibrosis. Surgically created UUO can be experimentally manipulated with respect to timing, severity, and duration, while reversal of the obstruction permits the study of recovery.
FIG. 47 represents the results of the testing of compounds UPHD-00022, UPHD-00025 (PTBA), UPHD-00029, UPHD-00036, and UPHD-00186, for their efficacy in mouse models of unilateral ureteral obstruction (UUO) as follows: in the UUO models, one ureter was ligated for 7 days and compounds were delivered via IP for days 0 to 6. At day 7 kidneys were harvested for Sirius red staining. […] Therefore, in the models tested, the only compound proven to be effective in all models and with significant delayed onset of treatment is UPHD-186.

[6] = tested on: CD1 mice, folic acid-induced injury; experiment: Folic acid-induced AKI; type: in vivo, mouse; conditions: daily IP 50 mg/ml in 30% PEG300 from 24 hrs after folic acid; after 15 days
Experimental: FIG. 41 are photomicrographs showing the results of an AKI model using folic acid-induced injury. Folic acid is administered to CD1 mice (n=6/group) intraperitoneally (IP) at 250 mg/ml in 0.3M NaHCO3. Compound UPHD-00022 was injected daily IP at […] in 30% PEG300 vehicle starting 24 hrs after folic acid treatment. Kidney tissue was stained using Trichrome and Sirus Red stained after 15 days. Blue in trichrome and the red in sirus red indicates fibrotic (scar) tissue.

[7] = lhx1a in situ hybridization, includes repeats* and recounts

Structure (SMILES)	HDAC activity, % of the control value [1] [%]	embryos with decreased myod1 expression ([2]; 3 μM PTBA (slightly decreased), 200 nM TSA) [%]	embryos with increased ntla expression ([2]; 3 μM PTBA) [%]	embryos with decreased fli1a expression ([2]; 200 nM TSA) [%]	death (lethality) by 72 hpf (zebrafish larvae; n=90) [%]	larvae with edemic phenotype / pericardial edema at 72 hpf (zebrafish larvae; treated from 2 hpf, 3 μM PTBA) [%]	HDAC activity, % of the control value [3] [%]	histone H4 hyperacetylation (histone H4 acetylation)	concentration producing lhx1a expansion consistent with 3 μM PTBA ([4]; 10-somite embryos) [µM]	fibrosis (Sirius red) and expression of fibrosis markers in UUO kidney [5]	renal fibrosis (Trichrome and Sirus Red) [6]	lhx1a expansion class, 200 nM ([4]; 200 nM from 2 hpf)	lhx1a expansion class, 400 nM ([4]; 400 nM from 2 hpf)	lhx1a expansion class, 800 nM ([4]; 800 nM from 2 hpf)	responders at 0.4 µM ([4]; Danio rerio, 400 nM, read-out: embryos with expanded lhx1a expression (% expansion)) [%]	responders at 0.8 µM ([4]; Danio rerio, 800 nM, read-out: embryos with expanded lhx1a expression (% expansion)) [%]	Expansion of Cells, 800 nM [4, 7] [%]	Expansion of Cells, 1.5 μM [4, 7] [%]	Expansion of Cells, 3 μM [4, 7] [%]
O=C(O)CCCc1ccccc1 [PBA, 4-phenylbutanoic acid]	30	57	87	78	8	23	19	hyperacetylation was observed	25										
COC(=O)CCCSc1ccc(OC)cc1 [UPHD-00022, methyl 4-[(4-methoxyphenyl)sulfanyl]butanoate]										reduce both fibrosis and expression of fibrosis markers	a reduction in fibrosis is seen	−	+/−	+	29	57	57	91	100
